Measurements as given in ChEMBL document CHEMBL1201862, “PubChem BioAssay data set” (2004).
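Following 48 hours of exposure in 96-well plates, responses at five concentrations were used to interpolate endpoints linearly. GI50 is the concentration that inhibits growth by half.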 The source made the active and inactive calls. Cut-off read from the data, not from the text of the source: active = GI50 up to about 1.1 µM and inactive = higher.

Legend:
Experiment in all cases: DTP human tumour cell line panel, 48 h
[1] = system: UACC-62
[2] = system: LXFL 529
[3] = system: SW-620
[4] = system: XF498
[5] = system: A498
[6] = system: RXF 631
[7] = system: HT-29
[8] = system: IGROV-1
[9] = system: DMS-114
[10] = system: ACHN
[11] = system: SN12C
[12] = system: LOX IMVI
[13] = system: U-251
[14] = system: SF-295
[15] = system: COLO 205
[16] = system: CAKI-1
[17] = system: TK-10
[18] = system: A549
[19] = system: KM-20L2
[20] = system: 786-0
[21] = system: HOP-62
[22] = system: RXF 393
[23] = system: NCI-H460
[24] = system: SK-MEL-28
[25] = system: OVCAR-5
[26] = system: Malme-3M
[27] = system: M14
[28] = system: SK-OV-3
[29] = system: OVCAR-8
[30] = system: DMS-273
[31] = system: EKVX
[32] = system: SNB-78
[33] = system: SF-539
[34] = system: HCT-15

O=C1OCc2c1cc1ccc(O)c(OC3OC(CO)C(O)C(O)C3O)c1c2-c1ccc2c(c1)OCO2 (centres undefined)
GI50 [1]: 76.9 µM (inactive)
GI50 [2]: 68.1 µM (inactive)
GI50 [3]: > 100 µM (inactive)
GI50 [4]: 62.7 µM (inactive)
GI50 [5]: > 100 µM (inactive)
GI50 [6]: > 100 µM (inactive)
GI50 [7]: 47.2 µM (inactive)
GI50 [8]: > 100 µM (inactive)
GI50 [9]: 47.5 µM (inactive)
GI50 [10]: 72.1 µM (inactive)
GI50 [11]: 89.3 µM (inactive)
GI50 [12]: 86.7 µM (inactive)
GI50 [13]: > 100 µM (inactive)
GI50 [14]: > 100 µM (inactive)
GI50 [15]: > 100 µM (inactive)
GI50 [16]: 87.3 µM (inactive)
GI50 [17]: > 100 µM (inactive)
GI50 [18]: > 100 µM (inactive)
GI50 [19]: > 100 µM (inactive)
GI50 [20]: > 100 µM (inactive)
GI50 [21]: > 100 µM (inactive)
GI50 [22]: 59.4 µM (inactive)
GI50 [23]: > 100 µM (inactive)
GI50 [24]: 67.8 µM (inactive)
GI50 [25]: > 100 µM (inactive)
GI50 [26]: > 100 µM (inactive)
GI50 [27]: 87.3 µM (inactive)
GI50 [28]: > 100 µM (inactive)
GI50 [29]: 94 µM (inactive)
GI50 [30]: 94.6 µM (inactive)
GI50 [31]: > 100 µM (inactive)
GI50 [32]: 89.3 µM (inactive)
GI50 [33]: > 100 µM (inactive)
GI50 [34]: 46.2 µM
